Data from patent US12528802B2, “Heterocyclic compound” (Takeda Pharmaceutical Company Limited, priority 2019, dated 2026).

Target: T1, glucosylceramide synthase (Homo sapiens, UniProt Q16739)
T1 construct: made in house; host or cells: Expi293F cells (transient expression, pcDNA3.3-TOPO vector); microsome fraction used as enzyme source
T1 sequence (Q16739 1-394): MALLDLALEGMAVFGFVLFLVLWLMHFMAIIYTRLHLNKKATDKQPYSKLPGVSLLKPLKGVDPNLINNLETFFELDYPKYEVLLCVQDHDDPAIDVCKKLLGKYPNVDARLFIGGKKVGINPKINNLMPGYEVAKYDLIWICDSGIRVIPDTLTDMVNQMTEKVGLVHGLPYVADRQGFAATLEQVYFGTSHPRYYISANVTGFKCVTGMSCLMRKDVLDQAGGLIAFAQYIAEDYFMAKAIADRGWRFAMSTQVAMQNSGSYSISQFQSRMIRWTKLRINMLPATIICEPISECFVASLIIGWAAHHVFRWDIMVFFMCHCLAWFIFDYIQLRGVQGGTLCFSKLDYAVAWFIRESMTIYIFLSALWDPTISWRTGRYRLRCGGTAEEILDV
Assay: Glucosylceramide synthase (GCS) enzyme assay, microsome fraction, C8 glucosylceramide quantified by Rapidfire MS/MS
Assay type: biochemical
Settings: test compound 10 μM; 1.7 μM UDP-glucose, 3 μM C8 ceramide; room temperature 60 min
Method: Glucosylceramide Synthase (GCS) Assay
In enzyme assay, a microsome fraction obtained by transient expression by Expi293F™ cells (catalog number: A14527, Thermo Fisher Scientific) was used as a glucosylceramide synthase source. Liposomal C8 ceramide and UDP-glucose were used as substrates. […] After the enzymatic reaction, the analysis was performed with Rapidfire MS/MS (API-4000™, SCIEX), and C8 glucosylceramide was quantified to evaluate the inhibitory activity of the test compound against glucosylceramide synthase activity.
PcDNA3.3TOPO vector (catalog number: K830001, Thermo Fisher Scientific) into which the human GCS gene was inserted was introduced into Expi293F™ Cells (catalog number: A14527, Thermo Fisher Scientific) by using ExpiFectamine™ 293 Transfection Kit (catalog number: A14525, Thermo Fisher Scientific). The cultured cells were dissolved in D-PBS (catalog number: 048-29805, Fuji Film Wako Pure Chemical Industries, Ltd.) containing 1 mM PMSF, and the solution was allowed to stand on ice for 30 minutes, and then subjected to cell disruption (homogenized). The disruption solution was centrifuged at 10,000×g for 20 minutes at 4° C., and the obtained supernatant was centrifuged at 142,400×g for 60 minutes at 4° C. The obtained precipitate was resuspended in a D-PBS solution containing 1 mM PMSF, and homogenized again to prepare as a microsome fraction. Protein quantification was performed by the CBB method.
A 1 mM compound solution prepared by dissolving the test compound in DMSO was added to a 384-well plate by 100 nL so that the final concentration of the test compound was 10 μM. Next, a substrate solution consisting of 3.4 μM UDP-glucose and 6 μM C8 ceramide was added by 5 μL, followed by an enzyme solution consisting of a 25 μg/mL microsome fraction by 5 μL. C8 ceramide was prepared from liposomes composed of 15 mol % C8 ceramide and 85 mol % dioleoyl phosphatidylcholine (1,2-dioleoyl-sn-glycero-3-phosphocholine: DOPC). The enzymatic reaction was carried out in a solution consisting of 20 mM tris-hydrochloric acid buffer (pH 7.5), 0.01% Tween 20, 0.01% bovine serum albumin and 1 mM dithiothreitol at room temperature for 60 min. Then, a solution consisting of 75% isopropanol and 1% formic acid containing 0.25 μM N-Octadecanoyl-D35-psichosine (catalog number: 1914, Matreya) as an internal standard substance was added by 60 μL to stop the enzymatic reaction. 5 μL of the centrifugal supernatant of the obtained reaction product was analyzed by Rapidfire MS/MS (Agilent Technologies) using API-4000™ (SCIEX), and the C8 glucosylceramide was quantified to evaluate the inhibitory activity of the test compound against the glucosylceramide synthase activity. The inhibitory activity of the test compound was evaluated when the C8 glucosylceramide level in the enzyme-free solution was considered as 100% inhibitory and the enzyme activity of the DMSO group in the absence of the compound was considered as 0% inhibitory.

Row | GCS enzyme inhibitory rate at 10 μM (%) (% of control) | Structure (SMILES)
1 | 98 | O=C1c2ccnc(-c3ccc(F)cc3OCC(F)(F)F)c2CN1c1ccc(C2(O)CCOC2)cc1 (single isomer, unassigned) [Example 263, (R or S)-4-[4-fluoro-2-(2,2,2-trifluoroethoxy)phenyl]-2-[4-(3-hydroxyoxolan-3-yl)phenyl]-2,3-dihydro-1H-pyrrolo[3,4-c]pyridin-1-one]
2 | 98 | O=C1c2ccnc(-c3ccc(F)cc3OCC(F)(F)F)c2CN1c1ccc(C2(O)CCOC2)cc1 (single isomer, unassigned) [Example 264, (R or S)-4-[4-fluoro-2-(2,2,2-trifluoroethoxy)phenyl]-2-[4-(3-hydroxyoxolan-3-yl)phenyl]-2,3-dihydro-1H-pyrrolo[3,4-c]pyridin-1-one]
3 | 98 | O=C1c2ccnc(-c3ccccc3OCC(F)(F)F)c2CN1c1ccc(C(O)C(F)(F)F)nc1 (single isomer, unassigned) [Example 277, (R or S)-4-[2-(2,2,2-trifluoroethoxy)phenyl]-2-[6-(2,2,2-trifluoro-1-hydroxyethyl)pyridin-3-yl]-2,3-dihydro-1H-pyrrolo[3,4-c]pyridin-1-one]

Same assay, conditions: test compound 10 μM; 1.7 μM UDP-glucose, 3 μM C8 ceramide; room temperature 60 min; read-out: GCS enzyme inhibitory rate at 10 μM (%) (% of control)

Row | Structure (SMILES) | inhibition at 10 µM [%]
4 | CC(C)(O)c1ccc(N2Cc3c(cc(C4CCCOC4)nc3-c3ccccc3OCC(F)(F)F)C2=O)cc1 (racemic) [Example 387, rac-2-[4-(2-hydroxypropan-2-yl)phenyl]-6-(oxan-3-yl)-4-[2-(2,2,2-trifluoroethoxy)phenyl]-2,3-dihydro-1H-pyrrolo[3,4-c]pyridin-1-one] | 101
5 | O=C1c2ccnc(-c3ccc(F)cc3OCC(F)(F)F)c2CN1c1ccc(C2(O)CCOC2)cc1 (single isomer, unassigned) [Example 243, (R or S)-4-[4-fluoro-2-(2,2,2-trifluoroethoxy)phenyl]-2-[4-(3-hydroxyoxolan-3-yl)phenyl]-2,3-dihydro-1H-pyrrolo[3,4-c]pyridin-1-one] | 97
6 | O=C1c2ccnc(-c3ccccc3OCC(F)(F)F)c2CN1c1ccc(C(O)C(F)(F)F)nc1 (single isomer, unassigned) [Example 276, (R or S)-4-[2-(2,2,2-trifluoroethoxy)phenyl]-2-[6-(2,2,2-trifluoro-1-hydroxyethyl)pyridin-3-yl]-2,3-dihydro-1H-pyrrolo[3,4-c]pyridin-1-one] | 98

Continued, values first:

Row | inhibition at 10 µM [%] | Structure (SMILES)
7 | 100 | CC(O)c1cc2c(c(-c3ccccc3OCC(F)F)n1)CN(c1ccc(OC(F)F)cc1)C2=O (racemic) [Example 358, rac-4-[2-(2,2-difluoroethoxy)phenyl]-2-[4-(difluoromethoxy)phenyl]-6-(1-hydroxyethyl)-2,3-dihydro-1H-pyrrolo[3,4-c]pyridin-1-one]
8 | 100 | Cc1cc2c(c(-c3ccccc3OCC(F)(F)F)n1)CN(c1ccc(OCC3(OC4CCCCO4)CC3)cc1)C2=O (racemic) [Example 374, rac-6-methyl-2-[4-({1-[(oxan-2-yl)oxy]cyclopropyl}methoxy)phenyl]-4-[2-(2,2,2-trifluoroethoxy)phenyl]-2,3-dihydro-1H-pyrrolo[3,4-c]pyridin-1-one]
9 | 99 | O=C1c2cc(C3CCCOC3)nc(-c3ccc(F)cc3OCC(F)(F)F)c2CN1c1ccc(F)cc1 (racemic) [Example 386, rac-2-(4-fluorophenyl)-4-[4-fluoro-2-(2,2,2-trifluoroethoxy)phenyl]-6-(oxan-3-yl)-2,3-dihydro-1H-pyrrolo[3,4-c]pyridin-1-one]
10 | 77 | CC(C)(O)c1ccc(N2Cc3c(cc(C4CCOC4)nc3-c3ccccc3OCC(F)F)C2=O)cc1 (racemic) [Example 390, rac-4-[2-(2,2-difluoroethoxy)phenyl]-2-[4-(2-hydroxypropan-2-yl)phenyl]-6-(oxolan-3-yl)-2,3-dihydro-1H-pyrrolo[3,4-c]pyridin-1-one]
